# Source: PubChem BioAssay (NCI)
#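 Assay format: 96-well plates, 48-hour exposure. Definition used: TGI = concentration required for complete inhibition of growth.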
# Assays:
# Experiment in all cases: NCI-60 cell line screen, 48 h
# CCRF-CEM leukemia = tested on: CCRF-CEM leukemia
# COLO 205 colon = tested on: COLO 205 colon
# SK-MEL-5 melanoma = tested on: SK-MEL-5 melanoma
# SF-295 CNS = tested on: SF-295 CNS
# MDA-N = tested on: MDA-N
# UO-31 renal = tested on: UO-31 renal
# NCI-H460 lung = tested on: NCI-H460 lung
# PC-3 prostate = tested on: PC-3 prostate
# ACHN renal = tested on: ACHN renal
# OVCAR-3 ovarian = tested on: OVCAR-3 ovarian
# U251 CNS = tested on: U251 CNS
# A498 renal = tested on: A498 renal
# OVCAR-5 ovarian = tested on: OVCAR-5 ovarian
# RPMI-8226 leukemia = tested on: RPMI-8226 leukemia
# UACC-257 melanoma = tested on: UACC-257 melanoma
# NCI-H226 lung = tested on: NCI-H226 lung
# OVCAR-8 ovarian = tested on: OVCAR-8 ovarian
# BT-549 breast = tested on: BT-549 breast
# HT29 colon = tested on: HT29 colon
# 786-0 renal = tested on: 786-0 renal
# HCT-116 colon = tested on: HCT-116 colon
# OVCAR-4 ovarian = tested on: OVCAR-4 ovarian
# MALME-3M melanoma = tested on: MALME-3M melanoma
# SW-620 colon = tested on: SW-620 colon
# NCI-H23 lung = tested on: NCI-H23 lung
# NCI-H522 lung = tested on: NCI-H522 lung
# DU-145 prostate = tested on: DU-145 prostate
# SF-268 CNS = tested on: SF-268 CNS
# SNB-75 CNS = tested on: SNB-75 CNS
# T-47D breast = tested on: T-47D breast
# HOP-92 NSCLC = tested on: HOP-92 NSCLC
# HCT-15 colon = tested on: HCT-15 colon
# MDA-MB-435 = tested on: MDA-MB-435
# SNB-19 CNS = tested on: SNB-19 CNS
# UACC-62 melanoma = tested on: UACC-62 melanoma
# SN12C renal = tested on: SN12C renal
# SK-MEL-28 melanoma = tested on: SK-MEL-28 melanoma
# HCC-2998 colon = tested on: HCC-2998 colon
# M14 melanoma = tested on: M14 melanoma
# HOP-62 NSCLC = tested on: HOP-62 NSCLC
# HS 578T breast = tested on: HS 578T breast
# MDA-MB-231 breast = tested on: MDA-MB-231 breast
# CAKI-1 renal = tested on: CAKI-1 renal
# EKVX NSCLC = tested on: EKVX NSCLC
# SK-OV-3 ovarian = tested on: SK-OV-3 ovarian
# IGROV1 ovarian = tested on: IGROV1 ovarian
# RXF 393 renal = tested on: RXF 393 renal
# KM12 colon = tested on: KM12 colon
# NCI/ADR-RES ovarian = tested on: NCI/ADR-RES ovarian
# MCF7 breast = tested on: MCF7 breast
# SK-MEL-2 melanoma = tested on: SK-MEL-2 melanoma
# MOLT-4 leukemia = tested on: MOLT-4 leukemia
# HL-60(TB) leukemia = tested on: HL-60(TB) leukemia
# TK-10 renal = tested on: TK-10 renal
# A549 NSCLC = tested on: A549 NSCLC
# SF-539 CNS = tested on: SF-539 CNS
# K-562 leukemia = tested on: K-562 leukemia
# LOX IMVI melanoma = tested on: LOX IMVI melanoma
smiles,measurement,setting,value
CN(C)c1ccc(/C=C2\N=C(N/N=C/c3ccc(N(C)C)cc3)NC2=O)cc1,TGI,CCRF-CEM leukemia,> 100 µM
same,TGI,COLO 205 colon,> 100 µM
same,TGI,SK-MEL-5 melanoma,> 100 µM
same,TGI,SF-295 CNS,> 100 µM
same,TGI,MDA-N,> 100 µM
same,TGI,UO-31 renal,> 100 µM
same,TGI,NCI-H460 lung,> 100 µM
same,TGI,PC-3 prostate,> 100 µM
same,TGI,ACHN renal,> 100 µM
same,TGI,OVCAR-3 ovarian,> 100 µM
same,TGI,U251 CNS,> 100 µM
same,TGI,A498 renal,> 100 µM
same,TGI,OVCAR-5 ovarian,> 100 µM
same,TGI,RPMI-8226 leukemia,> 100 µM
same,TGI,UACC-257 melanoma,> 100 µM
same,TGI,NCI-H226 lung,> 100 µM
same,TGI,OVCAR-8 ovarian,72.7 µM
same,TGI,BT-549 breast,> 100 µM
same,TGI,HT29 colon,> 100 µM
same,TGI,786-0 renal,> 100 µM
same,TGI,HCT-116 colon,> 100 µM
same,TGI,OVCAR-4 ovarian,> 100 µM
same,TGI,MALME-3M melanoma,> 100 µM
same,TGI,SW-620 colon,> 100 µM
same,TGI,NCI-H23 lung,> 100 µM
same,TGI,NCI-H522 lung,> 100 µM
same,TGI,DU-145 prostate,96 µM
same,TGI,SF-268 CNS,> 100 µM
same,TGI,SNB-75 CNS,> 100 µM
same,TGI,T-47D breast,> 100 µM
same,TGI,HOP-92 NSCLC,98.4 µM
same,TGI,HCT-15 colon,> 100 µM
same,TGI,MDA-MB-435,> 100 µM
same,TGI,SNB-19 CNS,> 100 µM
same,TGI,UACC-62 melanoma,> 100 µM
same,TGI,SN12C renal,> 100 µM
same,TGI,SK-MEL-28 melanoma,> 100 µM
same,TGI,HCC-2998 colon,> 100 µM
same,TGI,M14 melanoma,> 100 µM
same,TGI,HOP-62 NSCLC,> 100 µM
same,TGI,HS 578T breast,> 100 µM
same,TGI,MDA-MB-231 breast,> 100 µM
same,TGI,CAKI-1 renal,> 100 µM
same,TGI,EKVX NSCLC,> 100 µM
same,TGI,SK-OV-3 ovarian,> 100 µM
same,TGI,IGROV1 ovarian,> 100 µM
same,TGI,RXF 393 renal,53.8 µM
same,TGI,KM12 colon,> 100 µM
same,TGI,NCI/ADR-RES ovarian,> 100 µM
same,TGI,MCF7 breast,> 100 µM
same,TGI,SK-MEL-2 melanoma,> 100 µM
same,TGI,MOLT-4 leukemia,> 100 µM
same,TGI,HL-60(TB) leukemia,> 100 µM
same,TGI,TK-10 renal,> 100 µM
same,TGI,A549 NSCLC,> 100 µM
Cc1ccc2c3c4c(ccc13)C(C)(C)OC4=C(C(C)C)C2=O,TGI,CCRF-CEM leukemia,> 100 µM
same,TGI,COLO 205 colon,> 100 µM
same,TGI,SK-MEL-5 melanoma,> 100 µM
same,TGI,SF-295 CNS,> 100 µM
same,TGI,MDA-N,> 100 µM
same,TGI,UO-31 renal,> 100 µM
same,TGI,NCI-H460 lung,> 100 µM
same,TGI,PC-3 prostate,27.6 µM
same,TGI,ACHN renal,> 100 µM
same,TGI,OVCAR-3 ovarian,26.8 µM
same,TGI,U251 CNS,> 100 µM
same,TGI,SF-539 CNS,> 100 µM
same,TGI,A498 renal,> 100 µM
same,TGI,OVCAR-5 ovarian,> 100 µM
same,TGI,RPMI-8226 leukemia,> 100 µM
same,TGI,UACC-257 melanoma,> 100 µM
same,TGI,NCI-H226 lung,27.9 µM
same,TGI,OVCAR-8 ovarian,> 100 µM
same,TGI,BT-549 breast,> 100 µM
same,TGI,HT29 colon,39.2 µM
same,TGI,786-0 renal,> 100 µM
same,TGI,HCT-116 colon,> 100 µM
same,TGI,OVCAR-4 ovarian,> 100 µM
same,TGI,MALME-3M melanoma,> 100 µM
same,TGI,SW-620 colon,> 100 µM
same,TGI,NCI-H23 lung,> 100 µM
same,TGI,NCI-H522 lung,> 100 µM
same,TGI,DU-145 prostate,> 100 µM
same,TGI,SF-268 CNS,> 100 µM
same,TGI,SNB-75 CNS,> 100 µM
same,TGI,T-47D breast,> 100 µM
same,TGI,HOP-92 NSCLC,> 100 µM
same,TGI,HCT-15 colon,> 100 µM
same,TGI,MDA-MB-435,> 100 µM
same,TGI,SNB-19 CNS,> 100 µM
same,TGI,UACC-62 melanoma,> 100 µM
same,TGI,SN12C renal,> 100 µM
same,TGI,SK-MEL-28 melanoma,> 100 µM
same,TGI,HCC-2998 colon,> 100 µM
same,TGI,M14 melanoma,> 100 µM
same,TGI,HOP-62 NSCLC,29 µM
same,TGI,HS 578T breast,55.2 µM
same,TGI,MDA-MB-231 breast,> 100 µM
same,TGI,CAKI-1 renal,> 100 µM
same,TGI,EKVX NSCLC,> 100 µM
same,TGI,K-562 leukemia,> 100 µM
same,TGI,SK-OV-3 ovarian,> 100 µM
same,TGI,IGROV1 ovarian,> 100 µM
same,TGI,RXF 393 renal,> 100 µM
same,TGI,KM12 colon,> 100 µM
same,TGI,NCI/ADR-RES ovarian,> 100 µM
same,TGI,MCF7 breast,> 100 µM
same,TGI,SK-MEL-2 melanoma,30.7 µM
same,TGI,MOLT-4 leukemia,> 100 µM
same,TGI,HL-60(TB) leukemia,> 100 µM
same,TGI,TK-10 renal,> 100 µM
same,TGI,A549 NSCLC,> 100 µM
CCOC(=O)C(C)(C)Oc1ccc(Cl)cc1,TGI,CCRF-CEM leukemia,> 1000 µM
same,TGI,COLO 205 colon,459 µM
same,TGI,SK-MEL-5 melanoma,294 µM
same,TGI,SF-295 CNS,> 1000 µM
same,TGI,LOX IMVI melanoma,329 µM
same,TGI,MDA-N,> 1000 µM
same,TGI,UO-31 renal,> 1000 µM
same,TGI,NCI-H460 lung,> 1000 µM
same,TGI,PC-3 prostate,> 1000 µM
same,TGI,ACHN renal,> 1000 µM
same,TGI,U251 CNS,> 1000 µM
same,TGI,SF-539 CNS,> 1000 µM
same,TGI,A498 renal,> 1000 µM
same,TGI,OVCAR-5 ovarian,> 1000 µM
same,TGI,UACC-257 melanoma,496 µM
same,TGI,NCI-H226 lung,429 µM
same,TGI,OVCAR-8 ovarian,> 1000 µM
same,TGI,BT-549 breast,> 1000 µM
same,TGI,HT29 colon,325 µM
same,TGI,786-0 renal,> 1000 µM
same,TGI,HCT-116 colon,> 1000 µM
same,TGI,OVCAR-4 ovarian,> 1000 µM
same,TGI,MALME-3M melanoma,> 1000 µM
same,TGI,SW-620 colon,> 1000 µM
same,TGI,NCI-H23 lung,> 1000 µM
same,TGI,NCI-H522 lung,> 1000 µM
same,TGI,DU-145 prostate,> 1000 µM
same,TGI,SF-268 CNS,> 1000 µM
same,TGI,SNB-75 CNS,> 1000 µM
same,TGI,T-47D breast,682 µM
same,TGI,HOP-92 NSCLC,650 µM
same,TGI,HCT-15 colon,> 1000 µM
same,TGI,MDA-MB-435,> 1000 µM
same,TGI,SNB-19 CNS,> 1000 µM
same,TGI,UACC-62 melanoma,> 1000 µM
same,TGI,SN12C renal,> 1000 µM
same,TGI,SK-MEL-28 melanoma,> 1000 µM
same,TGI,HCC-2998 colon,> 1000 µM
same,TGI,M14 melanoma,> 1000 µM
same,TGI,HOP-62 NSCLC,> 1000 µM
same,TGI,HS 578T breast,> 1000 µM
same,TGI,MDA-MB-231 breast,> 1000 µM
same,TGI,CAKI-1 renal,> 1000 µM
same,TGI,EKVX NSCLC,> 1000 µM
same,TGI,K-562 leukemia,> 1000 µM
same,TGI,SK-OV-3 ovarian,> 1000 µM
same,TGI,IGROV1 ovarian,> 1000 µM
same,TGI,RXF 393 renal,433 µM
same,TGI,KM12 colon,> 1000 µM
same,TGI,NCI/ADR-RES ovarian,> 1000 µM
same,TGI,MCF7 breast,> 1000 µM
same,TGI,SK-MEL-2 melanoma,392 µM
same,TGI,MOLT-4 leukemia,591 µM
same,TGI,HL-60(TB) leukemia,> 1000 µM
same,TGI,TK-10 renal,> 1000 µM
same,TGI,A549 NSCLC,> 1000 µM
